Converted amounts (≈) assume the structure as drawn. “Also recorded” adds a separate entry of the source.
Key:
[1] = target: esterase of pig pancreas; assay: Inhibition of esterase (decomposition of p-nitrophenyl acetate by crude lipase preparation); type: biochemical
Description: Thus, a commercially available, crude lipase preparation obtained from pig pancreas is dissolved to a concentration of 0.5% (by weight) in a 0.05 M phosphate buffered solution (pH 7.0) containing 0.2% "Triton X-100" (a trade name of an emulsifier consisting of a polyethyleneglycol alkylphenylether, a product of Rohm & Haas Co., U.S.A.). 0.03 ml of this lipase solution, 2.92 ml of 0.05 M phosphate buffered solution (pH 7.0) and 0.025 ml of a solution containing an esterastin sample to be assayed are mixed together, and the resulting mixture (2.975 ml) is warmed at 20° C. for 3 minutes and then admixed with 0.025 ml of a solution containing 10 mg/ml of p-nitrophenyl acetate in methanol to start the reaction of p-nitrophenyl acetate with lipase. After the reaction was effected at 20° C. for 30 minutes, absorbance (a) at 400 nm of the resulting reaction solution is measured. On the other hand, absorbance (b) at 400 nm of a control reaction solution obtained from the blank test using the 0.05 M phosphate buffered solution containing no esterastin is measured in the same way as above. Degree (%) of inhibition to esterase is calculated according to the following equation: [formula]

[2] = tested on: mice; assay: Acute toxicity in mice; type: in vivo; conditions: 250 mg/kg, intraperitoneal injection
Source text: As known substances which inhibit the esterase, there may be mentioned paradoxon and di-isopropyl fluorophosphate etc., which are highly toxic compounds. […] In these respects, it also can be confirmed that esterastin is a novel substance.

[3] = tested on: D.T.H. to SRBC in mice; assay: Effect on cell-mediated immunity (Delayed Type Hypersensitivity to SRBC, footpad swelling); type: in vivo, dd/Y mice; conditions: for Increase of footpad thickness: 24 hours after eliciting injection of 10^8 SRBC
Description: Effect of esterastin on the cellular immunity was tested according to a known Delayed Type Hypersensitivity (D.T.H.) technique (see P. H. Lagrange, G. B. Mackaness and T. E. Mille: "J. Exp. Med.", 139, 1529-1539 (1974)) using mice immunized with sheep red blood cells as the antigen.
Thus, 10^8 sheep red blood cells suspended in 0.05 ml of physiological saline solution were immunized by subcutaneous injection to the one side of dd/Y mice hind footpad (5 mice per group, female, 6-weeks old) to establish delayed-type hypersensitivity. At the same time as this immunization, 1 mg/mouse, 250 mcg/mouse, 62.5 mcg/mouse or 15.6 mcg/mouse of esterastin were intraperitoneally injected to each test mouse. Four days later, 10^8 sheep rod blood cells were injected subcutaneously into the other side of each test mouse footpad for elicitation of D.T.H. response. 24 Hours after the eliciting injection, the thickness (in mm) of the footpad was measured to evaluate the degree of the swelling in the footpad which received the eliciting injection of sheep rod blood cells. The extent of the swelling in the footpad serves as a measure to estimate the cellular immunity involved.

[4] = tested on: antibody-forming cells per spleen; assay: Effect on formation of humoral antibody (Jerne plaque technique, SRBC-immunized mice); type: in vivo, dd/Y mice; conditions: for Number of antibody-forming cells per spleen (± S.E.): 10^8 SRBC i.v., day 4
Description: Groups of dd/Y mice (5 female mice per group, 6-8 weeks old) were immunized with 10^8 red blood cells of sheep as the anitgen (in the form of a suspension in physiological saline solution) by intravenous injection to develop the immunity. At the same time, 1 mg, 250 mcg, 62.5 mcg or 15.6 mcg of esterastin (in the form of a suspension in 1% DMSO-saline) per mouse were intraperitoneally injected into the separate groups of mice, respectively. On the 4 days after the immunization, the mice treated were sacrificed, spleen was teased and the number of the antibody-forming cells present in each mouse spleen was enumerated according to the method of Jerne (see N. K. Jerne, A. A. Nordin and C. Henry: "The agar plaque technique for recognizing antibody-producing cells. Cell-bound Antibodies." ed. B. Amos and H. Koprowski pp. 109-122, Wister Institute Press. Philadelphia, 1963).

[5] = tested on: cultured cells; assay: Cell toxicity to cultured cells; type: cell-based; conditions: concentration of 10 mcg/ml
[6] = Solubility in solvents; type: physicochemical

Structure (SMILES): CCCCCC=CCC=CCC(CC1OC(=O)C1CCCCCC)OC(=O)C(CC(N)=O)NC(C)=O (stereo not shown) [esterastin]
- IC50 ([1]; p-nitrophenyl acetate as the substrate, read-out: concentration giving 50% inhibition of esterase): 0.041 nM
- ID50, dose giving 50% inhibition to esterase ([1]; p-nitrophenyl acetate substrate, pH 7.0, 20° C., 30 minutes): 0.2 ng/mL (≈ 0.395 nM)
- acute toxicity [2]: no toxicity was observed at all; also recorded: does not give any sympton of toxicity at all
- effect on development of D.T.H. (in words) ([3]; 1 mg to 250 mcg to mice): remarkably suppresses the development of D.T.H.
- Increase of footpad thickness ([3]; 1 mg/mouse i.p.): 3.8 × 0.1 mm
- Increase of footpad thickness ([3]; 62.5 mcg/mouse i.p.): 6.2 × 0.1 mm
- Increase of footpad thickness ([3]; 250 mcg/mouse i.p.): 3.0 × 0.1 mm
- Number of antibody-forming cells per spleen (± S.E.) ([4]; 1 mg per mouse i.p.): 45,300 ± 3,300
- effect on number of the antibody forming cells (in words) ([4]; 1 mg to 62.5 mcg to mice): remarkably reduces the number of the antibody forming cells
- Number of antibody-forming cells per spleen (± S.E.) ([4]; 15.6 mcg per mouse i.p.): 173,000 ± 19,600
- Number of antibody-forming cells per spleen (± S.E.) ([4]; 62.5 mcg per mouse i.p.): 55,000 ± 5,700
- Number of antibody-forming cells per spleen (± S.E.) ([4]; 250 mcg per mouse i.p.): 52,000 ± 2,300
- cell toxicity to the cultured cells [5]: no cell toxicity
- solubility in petroleum ether and hexane ([6]; petroleum ether and hexane): sparingly soluble; also recorded: substantially insoluble
- solubility in organic solvents ([6]; pyridine, dimethylsulfoxide, methanol, ethanol, acetone, ethyl acetate, butyl acetate, chloroform and benzene): readily soluble
- solubility in water ([6]; water): sparingly soluble; also recorded: substantially insoluble

Source: patent US4242453A, “Cultivating streptomyces to produce an esterase inhibitor” (Zaidan Hojin Biseibutsu Kagaku Kenkyu Kai, priority 1977, dated 1980)
